Among the data in patent publication US7598392B2, “2-amido-4-phenylthiazole derivatives, the preparation and the therapeutic use thereof” (sanofi-aventis, priority 2004, dated 2009) are IC50 values, retold here.

One assay concerns the target T1, human CCR2b receptor (Homo sapiens, UniProt P41597).
T1 sequence (P41597 1-360 isoform P41597-2): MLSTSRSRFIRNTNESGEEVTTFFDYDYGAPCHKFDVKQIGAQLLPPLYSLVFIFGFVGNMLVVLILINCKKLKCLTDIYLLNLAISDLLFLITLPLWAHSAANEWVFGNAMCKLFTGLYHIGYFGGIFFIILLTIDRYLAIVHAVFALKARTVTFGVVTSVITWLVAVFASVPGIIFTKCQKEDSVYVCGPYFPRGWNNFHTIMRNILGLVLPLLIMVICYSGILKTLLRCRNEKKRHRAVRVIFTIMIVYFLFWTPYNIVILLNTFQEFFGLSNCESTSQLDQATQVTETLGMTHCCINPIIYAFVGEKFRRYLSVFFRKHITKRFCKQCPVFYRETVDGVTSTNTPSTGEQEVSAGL
Put plainly: Inhibitory activity on cells expressing the human CCR2b receptor. In kind it is cell-based. How it is done: The inhibitory activity of the compounds according to the invention on cells expressing the human CCR2b receptor was measured.
On to `CCCOc1ccc(OC)c(-c2csc(NC(=O)C3CCCN(C(=O)c4cc([N+](=O)[O-])cc([N+](=O)[O-])c4)C3)n2)c1` (stereo not drawn) [Compound 1], for which inhibition was half-maximal at 0.29 µM (IC50).
`COc1ccc(C2CCCCC2)cc1-c1csc(NC(=O)C2CCCN(C(=O)c3ccncn3)C2)n1` (stereo not drawn) [Compound 107, 1-(pyrimidine-4-carbonyl)piperidine-3-carboxylic acid [4-(5-cyclohexyl-2-methoxyphenyl)thiazol-2-yl]amide]: the IC50 was 0.005 µM.
For `COc1ccc(C2CCCCC2)cc1-c1csc(NC(=O)C2CCCN(C(=O)c3cccc(C#N)c3)C2)n1` (stereo not drawn) [Compound 20], it took 0.025 µM to reach half-maximal inhibition (IC50).
Same read-out and setting: the result for `COc1ccc(C2CCCCC2)cc1-c1csc(NC(=O)C2CCCN(C(=O)c3ccoc3C)C2)n1` (stereo not drawn) [Compound 31] reads 0.044 µM; that for “hMCP-1: "hMCP-1 (human monocyte chemotactic protein)", "belongs to the group or CC chemokines and which is a natural agonist of the CCR2b receptor"”, 0.00057 µM.

The next assay deals with human THP-1 monocytes. As to the kind of experiment: Inhibition of chemotaxis on human THP-1 monocytes. Type of assay: cell-based. Here is the method:
The inhibition of chemotaxis was also measured on human THP-1 monocytes (sold by DSMZ—Germany) using a technique adapted from that described by A. Albini et al., Cancer Res., 1987, 47, 3239-3245. Under these conditions, hMCP-1 has an IC50 of 6 nM.
On to “hMCP-1: "hMCP-1 (human monocyte chemotactic protein)", "belongs to the group or CC chemokines and which is a natural agonist of the CCR2b receptor"”, for which the IC50 was determined as 0.006 µM. This lies in the single-digit nanomolar range.
